Test results taken from US7655629B2, “Peptides and their use for the treatment of HIV infections” (priority 2002, dated 2010).
Positions of bridges follow the written chain, without caps; N, C: chain ends. Non-standard residues stand in square brackets, D forms with d. Residues, ends and D or L forms follow the SMILES beside them. Phe(4-F) = N[C@@H](Cc1ccc(F)cc1)C(=O)O; 4Pal = N[C@@H](Cc1ccncc1)C(=O)O; Tic = O=C(O)[C@@H]1Cc2ccccc2CN1

Key:
[1] = test system: HIV-1 NL4-3 DTV; details: read-out: IC50 DTV, P4-CCR5 cells, peptide 2 h before infection, readout three days after infection
Source text: (§1) These cells contain the β-galactosidase reporter gene under the control of the HIV-1 promoter. Thus, activation of the β-galactosidase reporter gene allows to measure the efficiency of HIV-1 infection and thus to quantitate the potency of HIV-1 inhibitors (Detheux M. et al., 2000; Journal of Experimental Medicine 192, 1501-1508; Münch et al., 2002; Antimicrobial Agents and Chemotherapy 46, 982-990).
(§2) To perform a typical infection assay, P4-CCR5 cells (Charneau et al., 1994; Journal of Molecular Biology 241, 651-662; Charneau et al., Virology. 1994 205, 247-53) were kept in RPMI 1640 medium supplemented with 10 volume % FCS. This cell line coexpresses CD4 and both HIV-1 coreceptors CCR5 and CXCR4 and contains the β-galactosidase gene under the control of the HIV-1 promoter. Virus stocks were generated by the calcium coprecipitation method as described (Detheux et al., J Exp Med. 192:1501-8; 2000), and the p24 antigen levels were quantitated with an HIV p24 ELISA kit obtained through the NIH AIDS Reagent Program. Cells were seeded in flat-bottomed 96-well dishes, cultured overnight, and incubated with the different doses of peptide for 2 h before infection with virus containing 1 ng of p24 antigen in a total volume of […] of medium. After overnight incubation, cells were washed twice and cultivated in fresh culture medium without inhibitory peptide. Three days after infection the cells were lysed, and infectivity was quantitated using the Galacto-Light Plus™ chemiluminescence reporter assay kit (Tropix, Bedford, Mass.) as recommended by the manufacturer. All infections were performed in quintuplicate.

[2] = test system: X4-tropic HIV-1 NL4-3; details: read-out: IC50 NL4-3; P4-CCR5 cells, HIV-1 NL4-3, peptide 2 h before infection, readout three days after infection
Source text: as §1, §2

Compound | IC50 [1] [nM] | IC50 [2] [nM]
CC[C@H](C)[C@H](NC(=O)[C@H](C)NC(=O)[C@H](CCC(=O)O)NC(=O)[C@@H](N)CC(C)C)C(=O)N1CCC[C@H]1C(=O)N[C@@H](CCSC)C(=O)N[C@@H](CO)C(=O)N[C@H](C(=O)N1CCC[C@H]1C(=O)N1CCC[C@@H]1C(=O)N[C@@H](CCC(=O)O)C(=O)N[C@H](C(=O)N[C@@H](Cc1c[nH]c2ccccc12)C(=O)N[C@@H](Cc1ccccc1)C(=O)N[C@@H](CC(N)=O)C(=O)N[C@@H](CCCCN)C(=O)N1CCC[C@H]1C(=O)N[C@@H](Cc1ccccc1)C(=O)N[C@H](C(=O)N[C@@H](Cc1ccccc1)C(=O)O)C(C)C)C(C)C)[C@@H](C)CC [VIR-266, LEAIPMSIPpEVWFNKPFVF] (H-LEAIPMSIP[dP]EVWFNKPFVF-OH) | 830 | 590
CC[C@H](C)[C@H](NC(=O)[C@H](C)NC(=O)[C@H](CCC(=O)O)NC(=O)[C@@H](N)CC(C)C)C(=O)N1CCC[C@H]1C(=O)N[C@@H](CCSC)C(=O)N[C@@H](CO)C(=O)N[C@H](C(=O)N1CCC[C@H]1C(=O)N1CCC[C@@H]1C(=O)N[C@@H](CCC(=O)O)C(=O)N[C@@H](Cc1ccccc1)C(=O)N[C@@H](CC(C)C)C(=O)N[C@@H](Cc1ccccc1)C(=O)N[C@@H](CC(N)=O)C(=O)N[C@@H](CCCCN)C(=O)N1CCC[C@H]1C(=O)N[C@@H](Cc1ccccc1)C(=O)N[C@H](C(=O)N[C@@H](Cc1ccccc1)C(=O)O)C(C)C)[C@@H](C)CC [VIR-199, LEAIPMSIPpEFLFNKPFVF] (H-LEAIPMSIP[dP]EFLFNKPFVF-OH) | 1650 | 2140
CC[C@H](C)[C@H](NC(=O)[C@H](C)NC(=O)[C@H](CCC(=O)O)NC(=O)[C@@H](N)CC(C)C)C(=O)N1CCC[C@H]1C(=O)N[C@@H](CCSC)C(=O)N[C@@H](CO)C(=O)N[C@H](C(=O)N1CCC[C@H]1C(=O)N1CCC[C@@H]1C(=O)N[C@@H](CCC(=O)O)C(=O)N[C@H](C(=O)N[C@@H](CC(C)C)C(=O)N[C@@H](Cc1ccccc1)C(=O)NCC(=O)N[C@@H](CCCCN)C(=O)N1CCC[C@H]1C(=O)N[C@@H](Cc1ccccc1)C(=O)N[C@H](C(=O)N[C@@H](Cc1ccccc1)C(=O)O)C(C)C)C(C)C)[C@@H](C)CC [VIR-191, LEAIPMSIPpEVLFGKPFVF] (H-LEAIPMSIP[dP]EVLFGKPFVF-OH) | 560 | 1790
CC[C@H](C)[C@H](NC(=O)[C@H](C)NC(=O)[C@H](CCC(=O)O)NC(=O)[C@@H](N)CC(C)C)C(=O)N1CCC[C@H]1C(=O)N[C@H]1CSSC[C@@H](C(=O)N[C@H](C(=O)NCC(=O)N[C@@H](Cc2ccccc2)C(=O)NCC(=O)N[C@@H](CCCCN)C(=O)N2CCC[C@H]2C(=O)N[C@@H](Cc2ccccc2)C(=O)N[C@H](C(=O)N[C@@H](Cc2ccccc2)C(=O)O)C(C)C)C(C)C)NC(=O)[C@@H]2CCCN2C(=O)[C@@H]2CCCN2C(=O)[C@H]([C@@H](C)CC)NC(=O)[C@H](CO)NC1=O [VIR-162] (H-LEAIPCSIPPCVGFGKPFVF-OH; disulfide 6-11) | 950 | 660
CC[C@H](C)[C@H](NC(=O)[C@H](C)NC(=O)[C@H](CCC(=O)O)NC(=O)[C@@H](N)CC(C)C)C(=O)N1CCC[C@H]1C(=O)N[C@@H](CCSC)C(=O)N[C@@H](CO)C(=O)N[C@H](C(=O)N1CCC[C@H]1C(=O)N1CCC[C@@H]1C(=O)N[C@@H](CCC(=O)O)C(=O)N[C@H](C(=O)N[C@@H](Cc1ccncc1)C(=O)N[C@@H](Cc1ccccc1)C(=O)N[C@@H](CC(N)=O)C(=O)N[C@@H](CCCCN)C(=O)N1CCC[C@H]1C(=O)N[C@@H](Cc1ccccc1)C(=O)N[C@H](C(=O)N[C@@H](Cc1ccccc1)C(=O)O)C(C)C)C(C)C)[C@@H](C)CC [VIR-260, LEAIPMSIPpEV(4-pyridylalanine)FNKPFVF] (H-LEAIPMSIP[dP]EV[4Pal]FNKPFVF-OH) | 2380 | 2150
CC[C@H](C)[C@H](NC(=O)[C@H](C)NC(=O)[C@H](CCC(=O)O)NC(=O)[C@@H](N)CC(C)C)C(=O)N1CCC[C@H]1C(=O)N[C@@H](CCSC)C(=O)N[C@@H](CO)C(=O)N[C@H](C(=O)N1CCC[C@H]1C(=O)N1CCC[C@@H]1C(=O)N[C@@H](CCC(=O)O)C(=O)N[C@H](C(=O)N[C@@H](Cc1ccccc1)C(=O)N[C@@H](Cc1ccccc1)C(=O)N[C@@H](CC(N)=O)C(=O)N[C@@H](CCCCN)C(=O)N1CCC[C@H]1C(=O)N[C@@H](Cc1ccccc1)C(=O)N[C@H](C(=O)N[C@@H](Cc1ccccc1)C(=O)O)C(C)C)C(C)C)[C@@H](C)CC [VIR-197, LEAIPMSIPpEVFFNKPFVF] (H-LEAIPMSIP[dP]EVFFNKPFVF-OH) | 1440 | 1270
CC[C@H](C)[C@H](NC(=O)[C@H](C)NC(=O)[C@H](CCC(=O)O)NC(=O)[C@@H](N)CC(C)C)C(=O)N1CCC[C@H]1C(=O)N[C@@H](CCSC)C(=O)N[C@@H](CO)C(=O)N[C@H](C(=O)N1CCC[C@H]1C(=O)N1CCC[C@@H]1C(=O)N[C@@H](CCC(=O)O)C(=O)N[C@H](C(=O)N[C@@H](C)C(=O)N[C@@H](Cc1ccccc1)C(=O)N[C@@H](CC(N)=O)C(=O)N[C@@H](CCCCN)C(=O)N1Cc2ccccc2C[C@H]1C(=O)N[C@@H](Cc1ccccc1)C(=O)N[C@H](C(=O)N[C@@H](Cc1ccccc1)C(=O)O)C(C)C)C(C)C)[C@@H](C)CC [VIR-268, LEAIPMSIPpEVAFNK(L-Tic)FVF] (H-LEAIPMSIP[dP]EVAFNK[Tic]FVF-OH) | 1480 | 1730
H-LEAIPMSIPPEVFFGKPFVF-OH [VIR-170] | 2000 | 1520
CC[C@H](C)[C@H](NC(=O)[C@H](C)NC(=O)[C@H](CCC(=O)O)NC(=O)[C@@H](N)CC(C)C)C(=O)N1CCC[C@H]1C(=O)N[C@@H](CCSC)C(=O)N[C@@H](CO)C(=O)N[C@H](C(=O)N1CCC[C@H]1C(=O)N1CCC[C@@H]1C(=O)N[C@@H](CCC(=O)O)C(=O)N[C@@H](Cc1ccc(F)cc1)C(=O)N[C@@H](C)C(=O)N[C@@H](Cc1ccccc1)C(=O)N[C@@H](CC(N)=O)C(=O)N[C@@H](CCCCN)C(=O)N1CCC[C@H]1C(=O)N[C@@H](Cc1ccccc1)C(=O)N[C@H](C(=O)N[C@@H](Cc1ccccc1)C(=O)O)C(C)C)[C@@H](C)CC [VIR-259, LEAIPMSIPpE(p-fluorophenylalanine)AFNKPFVF] (H-LEAIPMSIP[dP]E[Phe(4-F)]AFNKPFVF-OH) | 1030 | 860
H-LEAIPMSIPPEFAFNKDFVF-OH [VIR-243] | 1980 | 2160
CC[C@H](C)[C@H](NC(=O)[C@H](C)NC(=O)[C@H](CCC(=O)O)NC(=O)[C@@H](N)CC(C)C)C(=O)N1CCC[C@H]1C(=O)N[C@H]1CSSC[C@@H](C(=O)N[C@@H](CC(C)C)C(=O)N[C@@H](Cc2ccccc2)C(=O)NCC(=O)N[C@@H](CCCCN)C(=O)N2CCC[C@H]2C(=O)N[C@@H](Cc2ccccc2)C(=O)N[C@H](C(=O)N[C@@H](Cc2ccccc2)C(=O)O)C(C)C)NC(=O)[C@H](CCC(=O)O)NC(=O)[C@@H]2CCCN2C(=O)[C@@H]2CCCN2C(=O)[C@H]([C@@H](C)CC)NC(=O)[C@H](CO)NC1=O [VIR-570] (H-LEAIPCSIPPECLFGKPFVF-OH; disulfide 6-12) | – | 231
CC[C@H](C)[C@H](NC(=O)[C@H](C)NC(=O)[C@H](CCC(=O)O)NC(=O)[C@@H](N)CC(C)C)C(=O)N1CCC[C@H]1C(=O)N[C@@H](CCSC)C(=O)N[C@@H](CO)C(=O)N[C@H](C(=O)N1CCC[C@H]1C(=O)N1CCC[C@@H]1C(=O)N[C@@H](CCC(=O)O)C(=O)N[C@@H](Cc1ccccc1)C(=O)N[C@@H](CC(C)C)C(=O)N[C@@H](Cc1ccccc1)C(=O)NCC(=O)N[C@@H](CCCCN)C(=O)N1CCC[C@H]1C(=O)N[C@@H](CCC(=O)O)C(=O)N[C@@H](Cc1ccccc1)C(=O)N[C@H](C(=O)N[C@@H](Cc1ccccc1)C(=O)O)C(C)C)[C@@H](C)CC [VIR-384, LEAIPMSIPpEFLFGKPEFVF] (H-LEAIPMSIP[dP]EFLFGKPEFVF-OH) | – | 622
CC[C@H](C)[C@H](NC(=O)[C@@H]1CCCN1C(=O)[C@@H](NC(=O)[C@H](CC(=O)O)NC(=O)[C@H](CCC(=O)O)NC(=O)[C@@H](N)CC(C)C)[C@@H](C)CC)C(=O)NCC(=O)N[C@H](C(=O)N1CCC[C@H]1C(=O)N1CCC[C@@H]1C(=O)N[C@@H](CCC(=O)O)C(=O)N[C@H](C(=O)N1Cc2ccccc2C[C@H]1C(=O)N[C@@H](Cc1ccccc1)C(=O)N[C@@H](CC(N)=O)C(=O)N[C@@H](CCCCN)C(=O)N1CCC[C@H]1C(=O)N[C@@H](Cc1ccccc1)C(=O)N[C@H](C(=O)N[C@@H](Cc1ccccc1)C(=O)O)C(C)C)C(C)C)[C@@H](C)CC [VIR-487, LEDIPIGIPpEV(L-Tic)FNKPFVF] (H-LEDIPIGIP[dP]EV[Tic]FNKPFVF-OH) | – | 256
CC[C@H](C)[C@H](NC(=O)[C@H](C)NC(=O)[C@H](CCC(=O)O)NC(=O)[C@@H](N)CC(C)C)C(=O)N1CCC[C@H]1C(=O)N[C@H]1CSSC[C@@H](C(=O)N[C@@H](Cc2ccccc2)C(=O)N[C@@H](C)C(=O)N[C@@H](Cc2ccccc2)C(=O)N[C@@H](CC(N)=O)C(=O)N[C@@H](CCCCN)C(=O)N[C@@H](CC(=O)O)C(=O)N[C@@H](Cc2ccccc2)C(=O)N[C@H](C(=O)N[C@@H](Cc2ccccc2)C(=O)O)C(C)C)NC(=O)[C@@H]2CCCN2C(=O)[C@@H]2CCCN2C(=O)[C@H]([C@@H](C)CC)NC(=O)[C@H](CO)NC1=O [VIR-356] (H-LEAIPCSIPPCFAFNKDFVF-OH; disulfide 6-11) | – | 700
